The record followed here is patent US20080051466A1, “Isoalpha acid based protein kinase modulation cancer treatment” (Metaproteomics, LLC, priority 2006, published 2008).

In this assay the target is T1, TSSK2 (Homo sapiens, UniProt Q96PF2).
T1 sequence (Q96PF2 1-358): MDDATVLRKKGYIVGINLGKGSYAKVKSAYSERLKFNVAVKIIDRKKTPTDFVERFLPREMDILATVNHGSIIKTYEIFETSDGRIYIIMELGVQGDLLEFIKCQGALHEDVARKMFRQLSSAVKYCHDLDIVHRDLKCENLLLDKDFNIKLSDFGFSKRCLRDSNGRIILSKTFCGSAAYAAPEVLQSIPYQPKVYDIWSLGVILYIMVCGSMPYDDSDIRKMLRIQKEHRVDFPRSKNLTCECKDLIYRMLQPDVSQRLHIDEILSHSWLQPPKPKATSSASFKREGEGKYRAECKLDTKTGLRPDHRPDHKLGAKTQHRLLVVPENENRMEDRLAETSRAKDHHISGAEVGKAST
The experiment in a line: KinaseProfiler Assay. Type of assay: biochemical. The note with it: read-out: TSSK2, % of Control.

Consider `COc1cc(O)c(CC=C(C)C)c(O)c1C(=O)/C=C/c1ccc(O)cc1` [Xanthohumol, xanthohumol], for which the remaining activity at 1 µg/mL (1 ug/ml) came out at 102%. In addition, the remaining activity at 5 µg/mL (5 ug/ml) amounted to 95%. Further, the remaining activity at 25 µg/mL (25 ug/ml) is 61%. Also, the remaining activity at 50 µg/mL (50 ug/ml) came to 48%.
